# Measurements reported in patent US6046228A, “Anti-viral pharmaceutical compositions containing saturated 1,2-dithiaheterocyclic compounds and uses thereof” (priority 1999, dated 2000).
# Assays:
# HIV-1 p7NC protein = biological target: T1, HIV-1 p7NC protein (Human immunodeficiency virus type 1 group M subtype B, UniProt P04591); test: Trp37 zinc finger fluorescence assay (zinc ejection from p7NC); format: biochemical; details: for p7NC Trp37 Assay (RFU): 25 μM compound; for loss of Trp37 fluorescence of p7NC: 25 μM
# T1 construct: recombinant HIV-1 p7NC protein
# Protocol: Fluorescence measurements of the Trp^37 residue in the C-terminal zinc finger of the recombinant HIV-1 p7NC protein were performed as previously described (Rice et al., Science 270:1194, 1995). The p7NC protein was prepared at 20 μg/ml in 10 mM sodium phosphate buffer (pH 7.0), treated with 25 μM of each compound, then after indicated time intervals the samples were diluted 1/10 in 10 mM sodium phosphate buffer (pH 7.0) and the fluorescence intensity measured. The excitation and emission wavelengths utilized with the Shimadzu RF5000 spectrofluorimeter were 280 nm and 351 nm, respectively. In an alternate assay, the zinc-selective fluorescent probe N-(6-methoxy-8quinolyl-)-p-toluenesulfonamide (TSQ, Molecular Probes, Eugene, Oreg.) originally described by Fredrickson (J. Neurosci. Meth. 20:91, 1987) was utilized to measure zinc released from the p7NC protein in vitro. Briefly, 2 μM recombinant HIV-1 p7NC protein in 10 mM sodium phosphate buffer, pH 7.0, 10% glycerol was treated with 10 μM 624151 ([…] total volume in 96-well plates), and the time-dependent increase in fluorescence was measured on a Labsystems Fluoroskan II (360 nm excitation filter and 460 nm emission filter) over a period of 2 hours. Induction of alterations of p7NC proteins within intact virions involved treatment of HIV-1MN for 1 hour at 37° C. with 25 μM test compound. Samples were centrifuged 1 hour at 4° C. under 18,000×g to pellet the virus from the drug. Virus pellets were resolved by non-reducing SDS-PAGE and analyzed by immunoblot using monospecific rabbit antisera to the purified p7NC protein.
# ^b The percent decrease in RFU was calculated based on measurement of
# the initial fluorescence of the p7NC protein before and 10 minutes after
# treatment with the 25 μM of compound at ambient temperature.
# The ability of 624151 to chemically interact with the zinc fingers of the HIV-1 p7NC protein was initially determined by a fluorescence assay (Rice et al., Science 270:1194-1197, (1995)) that measures a loss in intrinsic fluorescence of the tryptophan (Trp^37) residue in the second finger of the protein that occurs upon loss of zinc from the finger (Summers et al., Protein Sci. 1:563, 1992). […] As the 624151 modifies the zinc finger thiolates and the zinc is ejected over time, the metal is bound by the TSQ fluorochrome (FIG. 1(B)).
# Sodium Phosphate buffer, pH 7.0 in 1 ml was treated with 25 μM of
# compound. At indicated times, the mixture was diluted 1/10 and the
# relative fluorescence units (RFU) measured in a Shimadzu RF5000
# spectrofluorimeter with […] and Em = 351 mn. Following
# loss of zinc from the Cterminal zinc finger, the Trp37 residue folds away
# from the # aqueous environment and experiences a loss of fluorescence.
# SIV = test: XTT cytopathicity assay, other retroviruses; format: cell-based; details: Simian immunodeficiency virus
# HIV-1 protease = biological target: T2, HIV-1 protease (Human immunodeficiency virus type 1 group M subtype B, UniProt P04585); test: HIV-1 protease activity, reversed phase HPLC assay; format: biochemical
# T2 construct: the purified HIV-1 protease and integrase enzymes
# HIV-2ROD = test: XTT cytopathicity assay, other retroviruses; format: cell-based; details: Human immunodeficiency virus 2, CEM-SS
# Protocol: Initial anti-HIV screening was performed with CEM-SS cells and HIV-1RFusing the XTT cytoprotection assay as previously described (Weislow et al., J. National Cancer Inst. 81: 577-586, (1989)). HIV-1 isolates included common laboratory stains (RF, IIIB and MN), as well as a panel of HIV-1 clinical isolates (Cushman et al., J. Med. Chem. 37: 3040-3050, (1994)). The pyridone-resistant HIV-1A17 isolate (Nunberg et al., J. Virol., 65: 4887-4892 (1991)) was obtained from Emilio Emini at Merck Sharpe and Dohme Laboratories. Phytohemagglutinin-stimulated human peripheral blood lymphocytes (PBLs) and fresh monocyte-macrophage (Mono/MF) cultures were prepared and utilized in antiviral assays as previously described (Rice et al., Proc. Nat'l. Academy Science, USA 90: 9721-9724, (1993)); (Cushman et al., J. Med. Chem. 37: 3040-3050, (1994)). EC50 values for these cultures indicate the drug concentration that provided a 50% reduction in viral p24 production. […] The compounds can be synthesized according to the teachings of Singh et al., Sulfur Letters 8: 107-114, (1988). The 4,5-cis-dihydroxy(1,1-dioxy-1,2,-dithiohexane) compound (NSC 624151) has been abbreviated as 624151 for convenience. […]
smiles,measurement,setting,value
"O=S1(=O)C[C@H](O)[C@H](O)CS1 (relative stereo) [NSC 624151, cis-1,1-dioxo[1,2]dithiane-4,5-diol]",p7NC Trp37 Assay (RFU),HIV-1 p7NC protein; 0 min,295 RFU
same,p7NC Trp37 Assay (RFU),HIV-1 p7NC protein; 3 min,136 RFU
same,p7NC Trp37 Assay (RFU),HIV-1 p7NC protein; 10 min,75 RFU
same,p7NC Trp37 Assay (RFU),HIV-1 p7NC protein; 30 min,42 RFU
same,loss of Trp37 fluorescence of p7NC,"HIV-1 p7NC protein; FIG. 1(A), in words",time dependent loss of fluorescence
same,loss of Trp37 fluorescence of p7NC,"HIV-1 p7NC protein; FIG. 1(A), in words, listed as 624151",time-dependent loss of fluorescence
same,zinc ejection,"HIV-1 p7NC protein; FIG. 1(A), in words",promotes zinc ejection
same,reactivity with the zinc fingers,HIV-1 p7NC protein; in words,reacted aggressively with the p7NC protein zinc fingers
same,EC50,SIV,22 µM
same,inhibition of HIV-1 protease,HIV-1 protease; in words,not inhibited
same,IC50,HIV-1 protease; read-out: Protease Activity ID50,> 100 µM
same,EC50,HIV-2ROD,15.6 µM
